Converted amounts (≈) assume the structure as drawn. Where two headings read alike, the source gives them in different places.
Tests used:
[1] = tested on: Staphylococcus aureus (13709); test: Antibiotic testing (MIC), S. aureus 13709; type: cell-based; conditions: growth inhibition ≥90% relative to drug-free controls, read-out: minimum inhibitory concentration, Staphylococcus aureus (13709)
P. aeruginosa = test: Antibiotic testing (MIC), gram negative P. aeruginosa; type: cell-based; conditions: Pseudomonas aeruginosa; read-out: MIC, P. aeruginosa
Procedure: (§1) None of this collection of compounds were active against Gram-negative bacteria
(§2) Additionally, BPL 76 and derivatives were tested against a panel of gram negative bacteria including K. pneumonia, P. aeruginosa and E. coli (Table 12).

Bacillus subtilis = test: Antibiotic testing (MIC), Bacillus subtilis; type: cell-based; conditions: growth inhibition ≥90%, read-out: minimum inhibitory concentration, Bacillus subtilis
E. coli (25922) = test: Antibiotic testing (MIC), gram negative E. coli; type: cell-based; conditions: Escherichia coli; read-out: MIC, E. coli (25922)
Procedure: as §1, §2

C. albicans = test: Antibiotic testing (MIC), C. albicans; type: cell-based; conditions: Candida albicans; growth inhibition ≥90%; read-out: minimum inhibitory concentration, C. albicans
Candida glabrata = test: Antibiotic testing (MIC), Candida glabrata; type: cell-based; conditions: Nakaseomyces glabratus; growth inhibition ≥90%; read-out: minimum inhibitory concentration, Candida glabrata
Streptococcus pyogenes = test: Antibiotic testing (MIC), Streptococcus pyogenes; type: cell-based; conditions: growth inhibition ≥90%, read-out: minimum inhibitory concentration, Streptococcus pyogenes
B. anthracis = test: microbe, parasite or virus in culture; type: cell-based; conditions: Bacillus anthracis, read-out: minimum inhibitory concentration, B. anthracis
K. pneumoniae (10031) = test: Antibiotic testing (MIC), gram negative K. pneumoniae; type: cell-based; conditions: Klebsiella pneumoniae; read-out: MIC, K. pneumoniae (10031)
Procedure: as §1, §2

MMP-3 = molecular target: T1, MMP-3 (Homo sapiens, UniProt P08254); test: MMP-3 enzyme inhibition assay; type: biochemical
T1 construct: purchased BioMol
Procedure: The two fungi were also co-cultured under controlled conditions. P. fuscum was grown in pure culture in potato dextrose broth (10×400 mL). After 24 h, an agar cube (8 mm^3) impregnated with P. camembertii/clavigerum mycelium was added to each flask and the resulting co-culture was shaken for 6 more days (200 rpm, room temperature). At time of harvest, methanol (50 mL/flask) was added, the mycelia were removed by gravity filtration and the broth was extracted with chloroform (3×2 L). The chloroform was removed in vacuo to yield 663 mg of crude extract. The crude extract was verified to be active in the MMP-3, caspase-1 and caspase-3 enzyme inhibition assays. Enzyme inhibitory activity was determined using specific BioMol enzyme inhibition assay kits for drug discovery as described in Stierle, A; Stierle, D. The Berkeleylactones, Antibiotic Macrolides from Fungal Coculture. J. Nat. Prod. 80, 4, 1150-1160.

[2] = tested on: non-replicating persistence Mycobacterium tuberculosis (NRP-TB); test: Low oxygen recovery assay (LORA), non-replicating persistence Mtb; type: cell-based; conditions: Mycobacterium tuberculosis, read-out: MIC, LORA
[3] = tested on: Mycobacterium tuberculosis; test: microbe, parasite or virus in culture; conditions: read-out: MIC, MABA
[4] = tested on: Mycobacterium tuberculosis; conditions: normal (replicating) conditions; known antibiotics
Vero cell = test: Cytotoxicity (MTS), Vero cells; type: cell-based, monkey; conditions: Primates, 72 hours exposure
J774 = test: Cytotoxicity (MTS), J774 cells; type: cell-based, murine; conditions: Mus musculus, 72 hours exposure
HepG2 = test: Cytotoxicity (MTS), HepG2 cells; type: cell-based; conditions: Homo sapiens, 72 hours exposure
[5] = non-replicating persistence conditions, known antibiotics

T1 sequence (P08254 100-477): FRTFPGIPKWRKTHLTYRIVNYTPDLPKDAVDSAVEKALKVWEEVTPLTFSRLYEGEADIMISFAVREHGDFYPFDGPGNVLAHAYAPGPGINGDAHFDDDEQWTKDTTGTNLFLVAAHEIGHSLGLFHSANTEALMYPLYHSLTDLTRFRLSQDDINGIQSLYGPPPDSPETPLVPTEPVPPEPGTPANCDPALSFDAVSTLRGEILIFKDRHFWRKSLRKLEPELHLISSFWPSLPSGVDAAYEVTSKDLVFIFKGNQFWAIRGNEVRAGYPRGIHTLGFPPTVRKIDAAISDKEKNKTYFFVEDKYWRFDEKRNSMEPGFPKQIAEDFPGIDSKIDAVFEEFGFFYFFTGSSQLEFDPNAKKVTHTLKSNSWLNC

Question: What does the source list for `C[C@H]1OC(=O)/C=C/[C@@H](O)[C@@H](O)CCCCCCCC[C@@H]1O` [BPL 79, (5R,6S,15 S,16R,E)-5,6,15-trihydroxy-16-methyloxacyclohexadec-3-en-2-one]?
Answer: MIC [1]: 19 µg/mL (≈ 63.3 µM); MIC (P. aeruginosa): > 1000 µM; MIC (Bacillus subtilis): > 300 µg/mL; MIC (E. coli (25922)): > 1000 µM; MIC (C. albicans): > 300 µg/mL; MIC (Candida glabrata): > 300 µg/mL; MIC (Streptococcus pyogenes): 150 µg/mL (≈ 499 µM); MIC (B. anthracis): 75 µg/mL (≈ 250 µM); MIC (K. pneumoniae (10031)): > 1000 µM

Question: With `C[C@@H]1CC(O)CCCCCCC[C@H](OC(=O)CCC(=O)O)C(=O)/C=C/C(=O)O1` (stereo partly drawn) [BPL 78, 4-(((6S,16R,E)-14-hydroxy-16-methyl-2,5-dioxooxacyclohexadec-3-en-6-yl)oxy)-4-oxobutanoic acid] as the compound, how does the MIC (P. aeruginosa) read?
Answer: Its MIC is > 1000 µM.

Question: And the MIC (E. coli (25922))?
Answer: The MIC was > 1000 µM.

Question: What about the MMP-3 inhibition (MMP-3) of the same compound?
Answer: Its MMP-3 inhibition is “weaker inhibitors”.

Question: And the MIC (K. pneumoniae (10031))?
Answer: Its MIC is > 1000 µM.

Question: `CC(=O)NC[C@H]1CN(c2ccc(N3CCOCC3)c(F)c2)C(=O)O1` [LIZ - Linezolidum, Linezolidum, reference compound] was tested. Which MIC [2, 5] did it give?
Answer: The MIC was 2 µM.

Question: What about the MIC [3] of the same compound?
Answer: The MIC was 2 µM.

Question: With `COc1c(N2C[C@@H]3CCCN[C@@H]3C2)c(F)cc2c(=O)c(C(=O)O)cn(C3CC3)c12` [MOX - Moxifloxicin, Moxifloxicin, reference compound] as the compound, how does the “MIC, MABA” value [4] read?
Answer: Its value is 0.2 µM (≈ 0.0803 µg/mL).

Question: `CO[C@H]1/C=C/O[C@@]2(C)Oc3c(C)c(O)c4c(O)c(c(/C=N/N5CCN(C)CC5)c(O)c4c3C2=O)NC(=O)/C(C)=C\C=C\[C@H](C)[C@H](O)[C@@H](C)[C@@H](O)[C@@H](C)[C@H](OC(C)=O)[C@@H]1C` [RMP - Rifampicin, Rifampicin, reference compound] was tested. Which IC50 (Vero cell) did it give?
Answer: Its IC50 is > 100 µg/mL.

Question: What about the IC50 (J774) of the same compound?
Answer: Its IC50 is 95.8 µg/mL (≈ 116 µM).

Question: And the IC50 (HepG2)?
Answer: The IC50 was > 100 µg/mL.

Question: And the MIC [2]?
Answer: The MIC was 0.4 µM.

Question: And the MIC [3]?
Answer: The MIC was > 0.1 µM.

Question: How did the MIC [2, 5] turn out when `NNC(=O)c1ccncc1` [INH - Isoniazid, Isoniazid, reference compound] was run?
Answer: The MIC was > 128 µM.

Question: What about the MIC [3] of the same compound?
Answer: The MIC was 0.5 µM.

Question: Which results are given for `O=[N+]([O-])c1cn2c(n1)OC[C@@H](OCc1ccc(OC(F)(F)F)cc1)C2` [PA824, reference compound]?
Answer: MIC [2, 5]: 7 µM; MIC [3]: 0.2 µM

Question: Which IC50 (Vero cell) does the source give for `C[C@@H]1CCCCCCCCC[C@H](O)[C@H](O)/C=C/C(=O)O1` [BPL 95, (5R,6S,16R,E)-5,6-dihydroxy-16-methyloxacyclohexadec-3-en-2-one] here?
Answer: The IC50 was 75.6 µg/mL (≈ 266 µM).

Question: What about the IC50 (J774) of the same compound?
Answer: Its IC50 is 74.1 µg/mL (≈ 261 µM).

Question: And the MIC [1]?
Answer: The MIC was 48 µg/mL (≈ 169 µM).

Question: What about the IC50 (HepG2) of the same compound?
Answer: Its IC50 is > 100 µg/mL.

Question: And the MIC (Bacillus subtilis)?
Answer: Its MIC is 48 µg/mL (≈ 169 µM).

Question: What about the MIC (C. albicans) of the same compound?
Answer: The MIC was > 96 µg/mL.

Question: What about the MIC (Candida glabrata) of the same compound?
Answer: Its MIC is > 96 µg/mL.

Question: And the MIC (Streptococcus pyogenes)?
Answer: Its MIC is > 96 µg/mL.

Question: And the MIC (B. anthracis)?
Answer: The MIC was > 96 µg/mL.

Question: And the MIC ([2]; non-replicating persistence, hypoxic conditions)?
Answer: Its MIC is 24 µg/mL.

Question: And the MIC [3]?
Answer: The MIC was > 100 µg/mL.

From patent US11401253B2, “16-methyl-oxacyclohexadecan-2-one and 16-methyl-azacyclohexadecan-2-one derivatives as antimicrobial agents” (THE UNIVERSITY OF MONTANA, priority 2017, dated 2022)
